# Square brackets hold non-standard residues; d marks the D form. Peptide text beside a SMILES is read from it. Cha = N[C@@H](CC1CCCCC1)C(=O)O; Ahx = NCCCCCC(=O)O
# Biological target: Neuropeptide Y receptor type 2 (Oryctolagus cuniculus)
# Assay: Compound was evaluated for its inhibitory activity against Y2 receptor of rabbit kidney membrane
row,IC50 [nM],Structure (SMILES)
1,8,CC[C@H](C)[C@H](NC(=O)[C@H](Cc1ccc(O)cc1)NC(=O)[C@H](Cc1c[nH]cn1)NC(=O)[C@H](CCCN=C(N)N)NC(C)=O)C(=O)N[C@@H](CC(N)=O)C(=O)N[C@@H](CC1CCCCC1)C(=O)N[C@@H](CC1CCCCC1)C(=O)N[C@H](C(=O)N[C@@H](CCCN=C(N)N)C(=O)N[C@@H](CCC(N)=O)C(=O)N[C@@H](CCCN=C(N)N)C(=O)N[C@@H](Cc1ccc(O)cc1)C(=O)O)[C@@H](C)O [Ac-RHYIN-(Cha)-(Cha)-TRQRY] (Ac-RHYIN[Cha][Cha]TRQRY-OH)
2,16,CC[C@H](C)[C@H](NC(=O)[C@H](Cc1ccc(O)cc1)NC(=O)[C@H](Cc1c[nH]cn1)NC(=O)[C@H](CCCN=C(N)N)NC(C)=O)C(=O)N[C@@H](CC(N)=O)C(=O)N[C@@H](CC1CCCCC1)C(=O)N[C@H](C(=O)N[C@H](C(=O)N[C@@H](CCCN=C(N)N)C(=O)N[C@@H](CCC(N)=O)C(=O)N[C@@H](CCCN=C(N)N)C(=O)N[C@@H](Cc1ccc(O)cc1)C(=O)O)[C@@H](C)O)[C@@H](C)CC [Ac-RHYIN-(Cha)-ITRQRY] (Ac-RHYIN[Cha]ITRQRY-OH)
3,180,CC[C@H](C)[C@H](NC(=O)[C@H](Cc1ccc(O)cc1)NC(=O)[C@H](Cc1cnc[nH]1)NC(=O)[C@H](CCCNC(=N)N)NC(=O)CCCCCNC(=O)[C@H](CCCCN)NC(=O)[C@H](CO)NC(=O)[C@@H]1CCCN1C(=O)[C@@H](N)Cc1ccc(O)cc1)C(=O)N[C@@H](CC(N)=O)C(=O)N[C@@H](CC(C)C)C(=O)N[C@H](C(=O)N[C@H](C(=O)N[C@@H](CCCNC(=N)N)C(=O)N[C@@H](CCC(N)=O)C(=O)N[C@@H](CCCNC(=N)N)C(=O)N[C@@H](Cc1ccc(O)cc1)C(N)=O)[C@@H](C)O)[C@@H](C)CC [Neuropeptide Y analogue] (H-YPSK[Ahx]RHYINLITRQRY-NH2)

# Reference: BindingDB's records for doi:10.1016/S0960-894X(00)80696-4 (1993)
